From ChEMBL document CHEMBL1139761, “Synthesis and optimization of novel and selective muscarinic M(3) receptor antagonists” (Bioorg Med Chem Lett, 2007)

Legend:
[1] = target: T1, Muscarinic acetylcholine receptor M2 (Rattus norvegicus, UniProt P10980); test: Displacement of [3H]N-methylscopolamine from muscarinic M2 receptor in rat heart
T1 sequence (P10980 whole entry): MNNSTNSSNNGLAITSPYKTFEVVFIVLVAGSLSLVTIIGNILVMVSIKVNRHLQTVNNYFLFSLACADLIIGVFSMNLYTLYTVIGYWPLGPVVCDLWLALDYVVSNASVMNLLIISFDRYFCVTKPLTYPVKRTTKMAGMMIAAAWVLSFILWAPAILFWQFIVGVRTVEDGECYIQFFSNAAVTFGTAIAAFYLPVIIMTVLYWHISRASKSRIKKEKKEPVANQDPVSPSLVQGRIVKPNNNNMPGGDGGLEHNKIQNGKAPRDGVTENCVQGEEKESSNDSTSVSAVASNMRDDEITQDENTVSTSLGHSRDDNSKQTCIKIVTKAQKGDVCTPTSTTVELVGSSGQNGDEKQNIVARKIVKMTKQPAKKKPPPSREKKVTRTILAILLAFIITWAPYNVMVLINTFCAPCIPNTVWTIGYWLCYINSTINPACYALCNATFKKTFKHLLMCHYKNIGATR

[2] = target: Muscarinic acetylcholine receptor M3 (Rattus norvegicus, UniProt P08483); test: Displacement of [3H]N-methylscopolamine from muscarinic M3 receptor in rat submandibular gland; format: tissue-based
Chain of Muscarinic acetylcholine receptor M3 (P08483 whole entry): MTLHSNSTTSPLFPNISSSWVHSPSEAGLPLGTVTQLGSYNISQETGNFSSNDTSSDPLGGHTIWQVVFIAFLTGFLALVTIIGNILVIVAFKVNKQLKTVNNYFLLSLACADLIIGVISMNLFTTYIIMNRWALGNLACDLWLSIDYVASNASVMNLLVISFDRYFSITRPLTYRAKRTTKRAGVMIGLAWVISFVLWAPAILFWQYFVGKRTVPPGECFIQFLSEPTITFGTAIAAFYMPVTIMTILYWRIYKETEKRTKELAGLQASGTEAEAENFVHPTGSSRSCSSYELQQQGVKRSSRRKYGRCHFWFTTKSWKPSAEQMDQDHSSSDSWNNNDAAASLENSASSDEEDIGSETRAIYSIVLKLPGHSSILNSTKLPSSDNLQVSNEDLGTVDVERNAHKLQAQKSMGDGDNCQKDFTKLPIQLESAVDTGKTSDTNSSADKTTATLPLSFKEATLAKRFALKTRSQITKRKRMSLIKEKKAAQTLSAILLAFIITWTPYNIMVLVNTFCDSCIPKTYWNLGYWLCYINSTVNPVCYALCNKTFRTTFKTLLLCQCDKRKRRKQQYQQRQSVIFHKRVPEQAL

| Structure (SMILES) | Ki [1] | Ki [2] |
| --- | --- | --- |
| O=C(N[C@H]1[C@@H]2CN(CCCc3ccccc3)C[C@@H]21)C(O)(c1ccccc1)C1CCCC1 (some centres undefined) | 2630 nM | 776 nM |
| O=C(N[C@H]1[C@@H]2CN(Cc3ccccc3)C[C@@H]21)C(O)(c1ccccc1)C1CCCCCC1 (some centres undefined) | 349 nM | 6.8 nM |
| O=C(N[C@H]1[C@@H]2CN(Cc3ccccc3)C[C@@H]21)C(O)c1ccccc1 (some centres undefined) | > 1000 nM | > 1000 nM |
| CC(c1ccccc1)N1C[C@@H]2[C@H](C1)[C@H]2NC(=O)C(O)(c1ccccc1)C1CCCC1 (some centres undefined) | 630 nM | 25.1 nM |
| CC(c1ccccc1)N1C[C@@H]2[C@H](C1)[C@H]2NC(=O)C(O)(c1ccccc1)C1CCCCCC1 (some centres undefined) | 39 nM | 1.8 nM |
| O=C(N[C@H]1[C@@H]2CN(Cc3cccs3)C[C@@H]21)C(O)(c1ccccc1)C1CCCC1 (some centres undefined) | 3980 nM | 524 nM |
| Cc1ccc(C(C)N2C[C@@H]3[C@H](C2)[C@H]3NC(=O)C(O)(c2ccccc2)C2CCCC2)cc1 (some centres undefined) | 1230 nM | 58.9 nM |
| O=C(N[C@H]1[C@@H]2CN(CCc3ccc(Cl)cc3)C[C@@H]21)C(O)(c1ccccc1)C1CCCC1 (some centres undefined) | 298 nM | 31.3 nM |
| COC(=O)c1ccc(CCN2C[C@@H]3[C@H](C2)[C@H]3NC(=O)C(O)(c2ccccc2)C2CCCC2)cc1 (some centres undefined) | 537 nM | 43.6 nM |
| O=C(N[C@H]1[C@@H]2CN(CCc3ccc4c(c3)OCO4)C[C@@H]21)C(O)(c1ccccc1)C1CCCC1 (some centres undefined) | 277 nM | 20 nM |
| O=C(N[C@H]1[C@@H]2CN(Cc3ccc4ccccc4c3)C[C@@H]21)C(O)(c1ccccc1)C1CCCC1 (some centres undefined) | 778 nM | 42 nM |
| O=C(N[C@H]1[C@@H]2CN(CCc3ccccc3)C[C@@H]21)C(O)(c1ccccc1)C1CCCC1 (some centres undefined) | 335 nM | 9.3 nM |
| CC(C)=CCCN1C[C@@H]2[C@H](C1)[C@H]2NC(=O)C(O)(c1ccccc1)C1CCCC1 (some centres undefined) | 1370 nM | 33 nM |
| CC(C)=CCCN1C[C@@H]2[C@H](C1)[C@H]2NC(=O)[C@@](O)(c1ccccc1)C1CCCC1 | 1140 nM | 71 nM |
| O=C(N[C@H]1[C@@H]2CN(Cc3ccccc3)C[C@@H]21)C(O)(c1ccccc1)C1CCCC1 (some centres undefined) | 1420 nM | 96 nM |
| O=C(N[C@H]1[C@@H]2CN(CCc3ccc4c(c3)OCO4)C[C@@H]21)[C@](O)(c1ccccc1)C1CCCC1 | 646 nM | 12.3 nM |
| O=C(N[C@H]1[C@@H]2CN(Cc3ccccc3)C[C@@H]21)C(O)(c1ccccc1)C1CCCCC1 (some centres undefined) | 943 nM | 31.7 nM |
| Cc1ccc(CCN2C[C@@H]3[C@H](C2)[C@H]3NC(=O)C(O)(c2ccccc2)C2CCCC2)cc1C (some centres undefined) | 812 nM | 43.6 nM |
| CC(c1ccccc1)N1C[C@@H]2[C@H](C1)[C@H]2NC(=O)C(O)(c1ccccc1)C1CCCCC1 (some centres undefined) | 154 nM | 5.9 nM |
| NC(=O)C(c1ccccc1)(c1ccccc1)[C@@H]1CCN(CCc2ccc3c(c2)CCO3)C1 [DARIFENACIN] | 63 nM | – |
